# Measurements as given in ChEMBL document CHEMBL4765227, “Hit to lead optimization of a series of N-[4-(1,3-benzothiazol-2-yl)phenyl]acetamides as monoacylglycerol lipase inhibitors with potential anticancer activity” (Eur J Med Chem, 2016).
# How the values were obtained:
# [1] = test system: Hs-578T; assay: Growth inhibition of human Hs-578T cells incubated for 48 hrs by sulforhodamine B assay; format: functional
# [2] = test system: SN12C; assay: Growth inhibition of human SN12C cells at 10 uM incubated for 48 hrs by sulforhodamine B assay relative to control; format: functional; settings: read-out: GI
# [3] = test system: SK-MEL-2; assay: Growth inhibition of human SK-MEL-2 cells at 10 uM incubated for 48 hrs by sulforhodamine B assay relative to control; format: functional; settings: read-out: GI
# [4] = test system: PC-3; assay: Growth inhibition of human PC-3 cells incubated for 48 hrs by sulforhodamine B assay; format: functional
# [5] = test system: Hs-578T; assay: Growth inhibition of human Hs-578T cells at 10 uM incubated for 48 hrs by sulforhodamine B assay relative to control; format: functional; settings: read-out: GI
# [6] = test system: NCI-H522; assay: Growth inhibition of human NCI-H522 cells incubated for 48 hrs by sulforhodamine B assay; format: functional
# [7] = test system: SF-539; assay: Growth inhibition of human SF-539 cells at 10 uM incubated for 48 hrs by sulforhodamine B assay relative to control; format: functional; settings: read-out: GI
# [8] = test system: MDA-MB-468; assay: Growth inhibition of human MDA-MB-468 cells at 10 uM incubated for 48 hrs by sulforhodamine B assay relative to control; format: functional; settings: read-out: GI
# [9] = test system: OVCAR-8; assay: Growth inhibition of human OVCAR-8 cells at 10 uM incubated for 48 hrs by sulforhodamine B assay relative to control; format: functional; settings: read-out: GI
# [10] = test system: MCF7; assay: Growth inhibition of human MCF7 cells incubated for 48 hrs by sulforhodamine B assay; format: functional
# [11] = test system: OVCAR-4; assay: Growth inhibition of human OVCAR-4 cells incubated for 48 hrs by sulforhodamine B assay; format: functional
# [12] = test system: K562; assay: Growth inhibition of human K562 cells incubated for 48 hrs by sulforhodamine B assay; format: functional
# [13] = test system: HOP-62; assay: Growth inhibition of human HOP-62 cells at 10 uM incubated for 48 hrs by sulforhodamine B assay relative to control; format: functional; settings: read-out: GI
# [14] = test system: U-251; assay: Growth inhibition of human U-251 cells at 10 uM incubated for 48 hrs by sulforhodamine B assay relative to control; format: functional; settings: read-out: GI
# [15] = test system: PC-3; assay: Growth inhibition of human PC-3 cells at 10 uM incubated for 48 hrs by sulforhodamine B assay relative to control; format: functional; settings: read-out: GI
# [16] = test system: EKVX; assay: Growth inhibition of human EKVX cells incubated for 48 hrs by sulforhodamine B assay; format: functional
# [17] = test system: OVCAR-8; assay: Growth inhibition of human OVCAR-8 cells incubated for 48 hrs by sulforhodamine B assay; format: functional
# [18] = test system: OVCAR-3; assay: Growth inhibition of human OVCAR-3 cells incubated for 48 hrs by sulforhodamine B assay; format: functional
# [19] = test system: HL-60(TB); assay: Growth inhibition of human HL-60(TB) cells at 10 uM incubated for 48 hrs by sulforhodamine B assay relative to control; format: functional; settings: read-out: GI
# [20] = test system: UO-31; assay: Growth inhibition of human UO-31 cells at 10 uM incubated for 48 hrs by sulforhodamine B assay relative to control; format: functional; settings: read-out: GI
# [21] = test system: SNB-19; assay: Growth inhibition of human SNB-19 cells incubated for 48 hrs by sulforhodamine B assay; format: functional
# [22] = test system: SF-539; assay: Growth inhibition of human SF-539 cells incubated for 48 hrs by sulforhodamine B assay; format: functional
# [23] = test system: A498; assay: Growth inhibition of human A498 cells incubated for 48 hrs by sulforhodamine B assay; format: functional
# [24] = test system: SF-295; assay: Growth inhibition of human SF-295 cells incubated for 48 hrs by sulforhodamine B assay; format: functional
# [25] = test system: SR; assay: Growth inhibition of human SR cells at 10 uM incubated for 48 hrs by sulforhodamine B assay relative to control; format: functional; settings: read-out: GI
# [26] = test system: CAKI-1; assay: Growth inhibition of human CAKI-1 cells incubated for 48 hrs by sulforhodamine B assay; format: functional
# [27] = test system: HCT-15; assay: Growth inhibition of human HCT-15 cells incubated for 48 hrs by sulforhodamine B assay; format: functional
# [28] = test system: SF-295; assay: Growth inhibition of human SF-295 cells at 10 uM incubated for 48 hrs by sulforhodamine B assay relative to control; format: functional; settings: read-out: GI
# [29] = test system: MOLT-4; assay: Growth inhibition of human MOLT-4 cells at 10 uM incubated for 48 hrs by sulforhodamine B assay relative to control; format: functional; settings: read-out: GI
# [30] = test system: SK-MEL-2; assay: Growth inhibition of human SK-MEL-2 cells incubated for 48 hrs by sulforhodamine B assay; format: functional
# [31] = test system: NCI-H226; assay: Growth inhibition of human NCI-H226 cells incubated for 48 hrs by sulforhodamine B assay; format: functional
# [32] = test system: COLO 205; assay: Growth inhibition of human COLO 205 cells incubated for 48 hrs by sulforhodamine B assay; format: functional
# [33] = test system: MDA-MB-435; assay: Growth inhibition of human MDA-MB-435 cells incubated for 48 hrs by sulforhodamine B assay; format: functional
# [34] = test system: A498; assay: Growth inhibition of human A498 cells at 10 uM incubated for 48 hrs by sulforhodamine B assay relative to control; format: functional; settings: read-out: GI
# [35] = biological target: T1, Monoglyceride lipase (Homo sapiens, UniProt Q99685); assay: Inhibition of human MAGL using 4-Nitrophenylacetate as substrate
# T1 sequence (Q99685 whole entry): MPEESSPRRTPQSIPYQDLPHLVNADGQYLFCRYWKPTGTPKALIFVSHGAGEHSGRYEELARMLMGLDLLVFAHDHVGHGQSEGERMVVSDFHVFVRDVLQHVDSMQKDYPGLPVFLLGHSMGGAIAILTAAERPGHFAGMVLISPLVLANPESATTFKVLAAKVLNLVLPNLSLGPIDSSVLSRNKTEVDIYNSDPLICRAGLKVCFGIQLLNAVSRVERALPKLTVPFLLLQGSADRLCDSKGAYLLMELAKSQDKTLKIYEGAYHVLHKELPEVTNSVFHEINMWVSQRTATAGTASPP
# [36] = test system: EKVX; assay: Growth inhibition of human EKVX cells at 10 uM incubated for 48 hrs by sulforhodamine B assay relative to control; format: functional; settings: read-out: GI
# [37] = read-out: LC50 (the source's name)
smiles,measurement,setting,value
O=C(CNc1ccc(Cl)cc1)Nc1ccc(-c2nc3ccccc3s2)cc1,GI50,[1],4.41 µM
same,LC50,[1],> 100 µM
same,TGI,[1],37.7 µM
same,inhibition of growth at 10 µM,[2],53.2%
same,inhibition of growth at 10 µM,[3],21.5%
same,GI50,[4],2.01 µM
same,TGI,[4],5.13 µM
same,CC50,[4]; [37],17.9 µM
same,inhibition of growth at 10 µM,[5],15.9%
same,GI50,[6],1.32 µM
same,LC50 (50% lethal concentration),[6],7.46 µM
same,TGI,[6],3.13 µM
same,inhibition of growth at 10 µM,[7],21.9%
same,inhibition of growth at 10 µM,[8],111%
same,inhibition of growth at 10 µM,[9],33.6%
same,GI50,[10],0.0325 µM
same,LC50,[10],> 100 µM
same,TGI,[10],2.5 µM
same,GI50,[11],2.24 µM
same,LC50,[11],42.3 µM
same,TGI,[11],8.49 µM
same,GI50,[12],2.95 µM
same,LC50,[12],> 100 µM
same,TGI,[12],> 100 µM
same,inhibition of growth at 10 µM,[13],-16.2%
same,inhibition of growth at 10 µM,[14],73.7%
same,inhibition of growth at 10 µM,[15],14.7%
same,GI50,[16],4.36 µM
same,LC50,[16],66.9 µM
same,TGI,[16],19.1 µM
same,GI50,[17],2.56 µM
same,LC50,[17],> 100 µM
same,TGI,[17],7.06 µM
same,GI50,[18],1.85 µM
same,LC50,[18],5.88 µM
same,TGI,[18],3.3 µM
same,inhibition of growth at 10 µM,[19],29%
same,inhibition of growth at 10 µM,[20],35%
same,GI50,[21],2.81 µM
same,LC50,[21],57.9 µM
same,TGI,[21],10.2 µM
same,GI50,[22],1.86 µM
same,LC50,[22],7.14 µM
same,TGI,[22],3.65 µM
same,GI50,[23],13 µM
same,TGI,[23],25.8 µM
same,CC50,[23]; [37],50.9 µM
same,GI50,[24],1.28 µM
same,LC50 (concentration causing 50% net cell kill),[24],61.8 µM
same,TGI,[24],28.1 µM
same,inhibition of growth at 10 µM,[25],88.5%
same,GI50,[26],2.74 µM
same,LC50 (concentration killing 50% of cells),[26],34.4 µM
same,TGI,[26],10.5 µM
same,GI50,[27],1.56 µM
same,TGI,[27],4.74 µM
same,CC50,[27]; [37],45.9 µM
same,inhibition of growth at 10 µM,[28],5.37%
same,inhibition of growth at 10 µM,[29],95.6%
same,GI50,[30],6.19 µM
same,"LC50 (lethal concentration, 50% cell kill)",[30],> 100 µM
same,TGI,[30],27.9 µM
same,GI50,[31],2.25 µM
same,LC50,[31],> 100 µM
same,TGI,[31],7.1 µM
same,GI50,[32],2.08 µM
same,LC50,[32],9.08 µM
same,TGI,[32],4.35 µM
same,GI50,[33],2.66 µM
same,LC50,[33],42.7 µM
same,TGI,[33],11.1 µM
O=C(CN1C(=O)C(=O)c2ccccc21)Nc1ccc(-c2nc3ccccc3s2)cc1,inhibition of growth at 10 µM,[2],4.5%
same,inhibition of growth at 10 µM,[3],0.87%
same,inhibition of growth at 10 µM,[5],-14.2%
same,inhibition of growth at 10 µM,[7],-0.12%
same,inhibition of growth at 10 µM,[8],72.6%
same,inhibition of growth at 10 µM,[9],4.11%
same,inhibition of growth at 10 µM,[13],-12.7%
same,inhibition of growth at 10 µM,[14],8.34%
same,inhibition of growth at 10 µM,[34],10.7%
same,inhibition of growth at 10 µM,[15],28.6%
same,inhibition of growth at 10 µM,[19],5.84%
same,inhibition of growth at 10 µM,[20],15.5%
same,inhibition of growth at 10 µM,[25],15.2%
same,IC50,[35],> 100 µM
same,inhibition of growth at 10 µM,[28],0.13%
same,inhibition of growth at 10 µM,[36],14.2%
same,inhibition of growth at 10 µM,[29],47.5%
